According to patent US11160871B2, “SSTR-targeted conjugates and particles and formulations thereof” (TARVEDA THERAPEUTICS, INC., priority 2015, dated 2021):
Read-outs that look alike come from different tables or passages of the source.

Key:
[1] = test system: NCI-H524 human small cell lung cancer cells; assay: cells; assay type: cell-based
Method: Conjugates of the present invention were assessed in an in vitro assay evaluating inhibition of cell proliferation. NCI-H524 (ATCC) human small cell lung cancer cells were plated in 96 well, V-bottomed plates (Costar) at a concentration of 5,000 cells/well. 24 hours later, cells were treated with either conjugate for 2 hours and further incubated 70 hours, or for octreotide competition experiments, treated with 100 μM octreotide for 30 min, and then treated with conjugate for 2 hours, and further incubated for 70 hours. Conjugate starting dose was 20 μM and three fold serial dilutions were done for a total of ten points. After 2 hours of treatment, cells were spun down, the drug containing media was removed, and fresh complete medium was added and used to resuspend the cells, which were spun again. After removal of the wash media, the cells were resuspended in complete medium, and then transferred into white walled, flat bottomed 96 well plates. […] Proliferation was measured using CellTiter Glo reagent using the standard protocol (Promega) and a Glomax multi+ detection system (Promega). Percent proliferation inhibition was calculated using the following formula: % inhibition=(control−treatment)/control*100. Control is defined as vehicle alone. IC50 curves were generated using the nonlinear regression analysis (four parameter) with GraphPad Prism 6.

[2] = test system: NCI-H69 SCLC tumors; assay: H69 tumor DM-1 levels by LC/MS-MS; assay type: in vivo, mice; details: 1 mg/kg; 24 hour time point
Method: (§1) To examine the ability of conjugates of the present invention to accumulate in tumors, a murine cancer model was used. All mice were treated in accordance with the OLAW Public Health Service Policy on Human Care and Use of Laboratory Animals and the ILAR Guide for the Care and Use of Laboratory Animals. All in vivo studies were conducted following the protocols approved by the Blend Therapeutics Institutional Animal Care and Use Committee. Animals were inoculated with 2.5×10^6 NCI-H69 SCLC (small cell lung cancer) cells in 1:1 RPMI 1640 (Invitrogen, Carlsbad, Calif.)/Matrigel® (BD Biosciences, San Jose, Calif.) via subcutaneous injection to the right flank. Tumors were allowed to reach an approximate volume of ˜500 mm3. Animals were then randomized into treatment groups of 3 animals per time point and were dosed at 1 mg/kg (10% propylene glycol in water for injection for free conjugates, or 10% sucrose for nanoparticles), or 0.4 mg/kg for DM-1 (10% propylene glycol in water for injection). The 24 hour time point was used as a benchmark across conjugates.
(§2) Tumor DM-1 levels were determined by liquid chromatography mass spectrometry (LC/MS-MS). Four volumes of 5 mM 6-maleimidohexanoic acid to 1 part tumor v/w was added and homogenized for about 10-15 seconds with a handheld homogenizer. 10 μL of 500 mM Tris(2-carboxyethyl)phosphine was added to 100 uL of tumor homogenate, mixed well and incubated at room temperature for about 5-15 min. 200-300 uL of acetonitrile was used to precipitate proteins in tumor homogenate, samples were centrifuged for 5 min, and supernatant was injected onto LC/MS-MS system for DM-1 analysis.

[3] = Single dose exploratory toxicity study; assay type: in vivo, SD female rat; details: 0.4 mg/kg
Method: Single dose exploratory toxicity studies in SD female rat (dose 0.5 mg/kg to 1.5 mg/kg) for 7-10 days were carried out. Clinical observations, body weight, clinical blood chemistry, histopathology, and complete blood counts were assessed. In the 10-day study, DM1 (0.4 mg/kg) was compared to Conjugate 57 at an equivalent dose of DM1 (1.0 mg/kg of conjugate) and at a 50% higher dose (1.5 mg/kg of conjugate).
Decreased white blood cell (WBC) count is a known dose limiting toxicity of DM1. WBC count was tracked in all groups.
Liver toxicity is also a know dose limiting toxicity of DM1. Alanine transaminase (ALT) and aspartate aminotransferase (AST) are markers of liver toxicity and were measured in all groups.

[4] = H69 tumor DM-1 levels by LC/MS-MS; assay type: in vivo, mice; details: mouse, tumor (NCI-H69 SCLC xenograft); 0.4 mg/kg for DM-1; 24 hour time point
Method: as §1, §2

[5] = biological target: SSTR3 (Homo sapiens, UniProt P32745); details: read-out: Octreoscan Ki; cited from earlier work
Chain of SSTR3 (P32745 whole entry): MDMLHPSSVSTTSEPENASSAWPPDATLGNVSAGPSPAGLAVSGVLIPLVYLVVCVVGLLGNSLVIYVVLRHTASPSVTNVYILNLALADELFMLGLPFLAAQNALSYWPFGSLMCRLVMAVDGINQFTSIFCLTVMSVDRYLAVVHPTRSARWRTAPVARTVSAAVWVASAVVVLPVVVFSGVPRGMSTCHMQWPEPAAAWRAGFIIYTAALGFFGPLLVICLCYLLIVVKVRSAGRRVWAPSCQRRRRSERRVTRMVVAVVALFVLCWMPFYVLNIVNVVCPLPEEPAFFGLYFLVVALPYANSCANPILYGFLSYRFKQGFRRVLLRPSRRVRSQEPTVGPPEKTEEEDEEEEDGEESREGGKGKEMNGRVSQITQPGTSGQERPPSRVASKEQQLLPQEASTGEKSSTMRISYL

[6] = biological target: SSTR2 (Homo sapiens, UniProt P30874); set-up: expressed in transfected cells; details: read-out: Octreoscan Ki; cited from earlier work
Chain of SSTR2 (P30874 whole entry): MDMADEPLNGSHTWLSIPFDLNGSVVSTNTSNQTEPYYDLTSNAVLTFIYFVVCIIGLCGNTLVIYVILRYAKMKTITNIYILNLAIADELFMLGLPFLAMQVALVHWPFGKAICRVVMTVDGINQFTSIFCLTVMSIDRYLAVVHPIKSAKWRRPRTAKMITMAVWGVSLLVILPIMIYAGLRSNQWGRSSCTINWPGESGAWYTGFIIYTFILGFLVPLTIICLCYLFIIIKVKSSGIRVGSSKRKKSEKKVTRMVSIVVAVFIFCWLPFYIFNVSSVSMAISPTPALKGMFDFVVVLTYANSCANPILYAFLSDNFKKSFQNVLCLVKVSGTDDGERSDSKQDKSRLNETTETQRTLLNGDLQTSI

[7] = biological target: SSTR4 (Homo sapiens, UniProt P31391); details: read-out: Octreoscan Ki; cited from earlier work
Chain of SSTR4 (P31391 whole entry): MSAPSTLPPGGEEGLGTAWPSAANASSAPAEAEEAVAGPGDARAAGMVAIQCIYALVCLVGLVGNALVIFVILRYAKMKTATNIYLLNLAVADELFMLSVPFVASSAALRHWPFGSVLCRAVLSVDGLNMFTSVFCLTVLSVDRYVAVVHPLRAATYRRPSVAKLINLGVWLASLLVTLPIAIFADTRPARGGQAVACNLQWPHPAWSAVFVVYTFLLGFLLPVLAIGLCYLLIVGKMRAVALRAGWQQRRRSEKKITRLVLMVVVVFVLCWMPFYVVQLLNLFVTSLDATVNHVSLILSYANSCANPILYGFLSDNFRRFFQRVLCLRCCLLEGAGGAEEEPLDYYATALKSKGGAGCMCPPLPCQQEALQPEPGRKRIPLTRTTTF

[8] = biological target: SSTR1 (Homo sapiens, UniProt P30872); details: read-out: Octreoscan Ki; cited from earlier work
Chain of SSTR1 (P30872 whole entry): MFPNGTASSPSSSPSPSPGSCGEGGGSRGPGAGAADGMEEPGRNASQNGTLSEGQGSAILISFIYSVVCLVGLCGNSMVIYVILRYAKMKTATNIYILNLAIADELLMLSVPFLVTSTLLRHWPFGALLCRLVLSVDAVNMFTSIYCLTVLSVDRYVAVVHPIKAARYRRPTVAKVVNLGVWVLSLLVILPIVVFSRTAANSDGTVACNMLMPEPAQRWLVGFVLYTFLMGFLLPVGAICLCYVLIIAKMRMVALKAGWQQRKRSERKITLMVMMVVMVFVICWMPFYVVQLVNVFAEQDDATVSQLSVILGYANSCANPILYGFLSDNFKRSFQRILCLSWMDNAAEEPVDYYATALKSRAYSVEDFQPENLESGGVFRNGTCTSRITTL

[9] = biological target: SSTR5 (Homo sapiens, UniProt P35346); details: read-out: Octreoscan Ki; cited from earlier work
Chain of SSTR5 (P35346 whole entry): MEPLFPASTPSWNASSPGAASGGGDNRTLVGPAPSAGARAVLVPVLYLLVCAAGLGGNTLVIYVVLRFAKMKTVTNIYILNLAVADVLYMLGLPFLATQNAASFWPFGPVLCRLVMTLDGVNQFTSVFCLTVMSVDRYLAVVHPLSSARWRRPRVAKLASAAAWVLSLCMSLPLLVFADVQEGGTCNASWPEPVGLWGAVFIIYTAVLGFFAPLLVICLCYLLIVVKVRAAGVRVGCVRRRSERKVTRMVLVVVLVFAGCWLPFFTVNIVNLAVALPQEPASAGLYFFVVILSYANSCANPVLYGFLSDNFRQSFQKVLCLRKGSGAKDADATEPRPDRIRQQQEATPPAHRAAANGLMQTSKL

Compound: COc1cc2cc(c1Cl)N(C)C(=O)C[C@H](OC(=O)C(C)N(C)C(=O)CCSSCCC(=O)NCCCOCCOCCOCCCNC(=O)CC[C@H]1C(=O)N[C@@H](Cc3ccc(O)cc3)C(=O)N[C@H](Cc3c[nH]c4ccccc34)C(=O)N[C@@H](CCCCN)C(=O)N[C@@H]([C@@H](C)O)C(=O)N[C@@H](Cc3ccccc3)C(=O)N1C)[C@]1(C)O[C@H]1[C@H](C)[C@@H]1C[C@@](O)(NC(=O)O1)[C@H](OC)/C=C/C=C(\C)C2 (some centres unmarked) [Conjugate 18]
- IC50 ([1]; 2 hours treatment, 70 hours further incubation, read-out: H524 IC50): 1480 nM
- IC50 ([1]; read-out: H524 IC50+ 100 uM octreotide, 100 μM octreotide for 30 min before conjugate): 2160 nM
- H69 tumor DM-1 levels [2]: 86.3 nM

Compound: COc1cc2cc(c1Cl)N(C)C(=O)C[C@H](OC(=O)[C@H](C)N(C)C(=O)CCSSCCOc1ccc(C[C@@H](N)C(=O)N[C@H]3CSSC[C@@H](C(=O)N[C@H](C(=O)O)[C@@H](C)O)NC(=O)[C@H]([C@@H](C)O)NC(=O)[C@H](CCCCN)NC(=O)[C@@H](Cc4c[nH]c5ccccc45)NC(=O)[C@H](Cc4ccc(O)cc4)NC3=O)cc1)[C@]1(C)O[C@H]1[C@H](C)[C@@H]1C[C@@](O)(NC(=O)O1)[C@H](OC)/C=C/C=C(\C)C2 [Conjugate 111]
- H69 tumor DM-1 levels [2]: 82.6 nM

Compound: COc1cc2cc(c1Cl)N(C)C(=O)C[C@H](OC(=O)[C@H](C)N(C)C(=O)CCSSCCC(=O)NCc1ccc(C[C@@H](N)C(=O)N[C@H]3CSSC[C@@H](C(=O)N[C@H](C(=O)O)[C@@H](C)O)NC(=O)[C@H]([C@@H](C)O)NC(=O)[C@H](CCCCN)NC(=O)[C@@H](Cc4c[nH]c5ccccc45)NC(=O)[C@H](Cc4ccc(O)cc4)NC3=O)cc1)[C@]1(C)O[C@H]1[C@H](C)[C@@H]1C[C@@](O)(NC(=O)O1)[C@H](OC)/C=C/C=C(\C)C2 [Conjugate 115]
- H69 tumor DM-1 levels [2]: 37.1 nM

Compound: COc1cc2cc(c1Cl)N(C)C(=O)C[C@H](OC(=O)[C@H](C)N(C)C(=O)CCS)C1(C)O[C@H]1[C@H](C)[C@@H]1C[C@@](O)(NC(=O)O1)[C@H](OC)/C=C/C=C(\C)C2 (some centres unmarked) [DM-1, mertansine, reference compound]
- AST and ALT [3]: dramatic increases in AST and ALT at day 5
- Day 5 weight change (%) [3]: −18%
- WBC count [3]: dramatic decreases in WBC count
- clinical outcome [3]: had to be euthanized on day 5 because they were moribund
- IC50 ([1]; Homo sapiens, NCI-H524, read-out: H524 IC50 (nM)): 90 nM
- IC50 ([1]; Homo sapiens, NCI-H524, read-out: H524 IC50+ 100 uM octreotide (nM)): 90 nM
- concentration at 24 h [4]: 31.6 nM

Compound: Indium-111 pentetreotide [Octreoscan]
- Ki [5]: 0.182 µM
- Ki [6]: 0.022 µM
- Ki [7]: > 1 µM
- Ki [8]: > 10 µM
- Ki [9]: 0.237 µM
